Measurements as given in patent US20070208009A1, “COMBINATION OF ANTI-HIV REVERSE TRANSCRIPTASE AND PROTEASE INHIBITORS” (priority 2004, published 2007).
Like-named read-outs stand apart in the source and are kept apart here.

Legend:
[1] = ritonavir 100 mg once daily with atazanavir, cited from earlier work
[2] = cited from earlier work; for Geometric mean ratio (95% confidence interval) for the AUC: saquinavir hard gel/ritonavir 1000/100 mg twice daily + tenofovir disoproxil fumarate 300 mg once daily
HIV-1 RT = molecular target: T1, HIV-1 RT (Human immunodeficiency virus type 1 group M subtype B, UniProt P04585); conditions: inhibition of HIV-1 RT; competitive with deoxyadenosine triphosphate incorporation; read-out: inhibition constant; cited from earlier work
T1 construct: The primary target of tenofovir diphosphate is reverse transcriptase (RT)

[3] = atazanavir/ritonavir 300/100 mg once daily, cited from earlier work
[4] = healthy subjects, cited from earlier work; for AUC increase / Cmax increase / Cmin increase: saquinavir/ritonavir 1000/100 mg twice daily with tenofovir disoproxil fumarate 300 mg once daily vs alone
[5] = tested on: laboratory HIV-1 strains and primary clinical isolates; conditions: cited from earlier work
[6] = Volunteer study of TMC114/ritonavir with tenofovir disoproxil fumarate, pharmacokinetics and tolerability
Method: Methods: 13 healthy volunteers were randomised into 2 cohorts.
In session 2, both cohorts received 300 mg tenofovir disoproxil fumarate qd for 14 days.

[7] = lopinavir/ritonavir 400/100 mg twice daily 14 days + tenofovir 300 mg once daily, healthy volunteers; cited from earlier work
[8] = in the presence of tenofovir 300 mg once daily
[9] = after addition of tenofovir disoproxil fumarate 300 mg once daily
[10] = before addition of tenofovir disoproxil fumarate
[11] = tenofovir disoproxil fumarate 300 mg qd with TMC114/ritonavir co-administered vs alone, statistically significant

## CC(C)c1nc(CN(C)C(=O)N[C@H](C(=O)N[C@@H](Cc2ccccc2)C[C@H](O)[C@H](Cc2ccccc2)NC(=O)OCc2cncs2)C(C)C)cs1 [ritonavir]
[1]; [8]
  AUC: 5217 ng·h/mL
  Cmax: 642 ng/mL
[1]; without tenofovir, HIV+ subjects
  AUC: 7011 ng·h/mL
[1]; without tenofovir
  Cmax: 886 ng/mL
[2]; in vivo
  plasma concentrations compared with day 1: not significantly different

## CC(Cn1cnc2c(N)ncnc21)OCP(=O)(O)OP(=O)(O)OP(=O)(O)O (stereo in doubt) [tenofovir diphosphate]
HIV-1 RT
  Ki: ~900 nM

## COC(=O)N[C@H](C(=O)N[C@@H](Cc1ccccc1)[C@@H](O)CN(Cc1ccc(-c2ccccn2)cc1)NC(=O)[C@@H](NC(=O)OC)C(C)(C)C)C(C)(C)C [atazanavir]
[3]; [9]
  AUC (mean±sd): 39276 ± 23034 ng·h/mL
  Cmax (mean±sd): 3443 ± 1412 ng/mL
[3]; [10]
  AUC (mean±sd): 53761 ± 35255 ng·h/mL
  Cmax (mean±sd): 5233 ± 3033 ng/mL

## CC(C)(C)NC(=O)[C@@H]1C[C@@H]2CCCC[C@@H]2CN1C[C@@H](O)[C@H](Cc1ccccc1)NC(=O)[C@H](CC(N)=O)NC(=O)c1ccc2ccccc2n1 [saquinavir]
[4]
  AUC increase: 29%
  Cmax increase: 22%
  Cmin increase: 47%
[4]; saquinavir/ritonavir 1000/100 mg twice daily
  Cmin achieved by all subjects: above 100 ng/ml
[2]; day 3 vs day 1
  Geometric mean ratio (95% confidence interval) for the AUC: 1.16 (0.97, 1.59)
[2]; day 14 vs day 1
  Geometric mean ratio (95% confidence interval) for the AUC: 0.99 (0.87, 1.30)
[2]; following the addition of tenofovir disoproxil fumarate
  plasma concentrations compared with day 1: not significantly different

## CC(C)CN(C[C@@H](O)[C@H](Cc1ccccc1)NC(=O)OC1CO[C@H]2OCC[C@@H]12)S(=O)(=O)c1ccc(N)cc1 (some centres unmarked) [TMC114]
[5]
  IC90: ~9 nM
[5]; read-out: 50% inhibitory concentration [IC50]
  IC50: ~3 nM

## C[C@H](Cn1cnc2c(N)ncnc21)OCP(=O)(O)O [tenofovir]
[4]
  AUC increase: 14%
  Cmax increase: 15%
  Cmin increase: 23%
[6]; in the presence and absence of TMC114/RTV
  urinary excretion of unchanged drug during one dosing interval: approximately 36%
[6]; [11]
  AUC24h (systemic exposure) increase based on the ratio of LSmeans: 22%
  Cmax increase based on the ratio of LSmeans: 24%
  Cmin increase based on the ratio of LSmeans: 37%
[7]
  AUC increase: 34%
  Cmax increase: 31%
  Cmin increase: 29%
